In US20260297105A1, “RAF-MEK PROTEIN COMPLEX MODULATORS AND METHODS OF USE THEREOF” (GANDEEVA THERAPEUTICS, INC., priority 2023, published 2026) one finds EC50 and IC50 data, which are given here for 17 compounds.

The test system of one assay is BRAF-MEK1. The assay is described as follows: BRAF-MEK TR-FRET assay, stabilization of MEK1 and BRAF interaction. It is filed as binding. The following applies: 4 nM BRAF, 10 nM MEK, 100 μM ATP, 1 hr at 25° C., read-out: BRAF-MEK TR-FRET Assay (EC50, fold stabilization). An excerpt: (§1) Protein expression and purification: BRAF (445-723) with N-term His-tag and C-term StrepII tag was expressed using the Expi293 system (ThermoFisher) and purified using Strep-Tactin® XT-Superflow (IBA) chromatography. ERK1 (full-length) with N-term His-tag was expressed in Rosetta DE3 cells (Millipore) and purified using HisTrap HP (Cytiva) and Superdex 200 (Cytiva) column chromatography. Full-length MEK1 for TR-FRET assays with N-term His-tag was expressed in BL21DE3 cells (ThermoFisher) and purified using HisTrap HP (Cytiva) and Superdex 200 (Cytiva) column chromatography.
Efficacy of exemplary compounds in stabilization of MEK1 and BRAF interaction: Compound stabilization of BRAF-MEK interaction was evaluated using TR-FRET (Time Resolved Fluorescence Energy Transfer). The FRET assay consisted of His-tagged MEK1 (produced in-house), GST-tagged BRAF (SignalChem, B08-11G), Anti His-Tb Cryptate donor, and Anti GST-XL665 acceptor fluorophores (PerkinElmer) to generate FRET signal upon BRAF-MEK1 binding. Compounds were prepared from DMSO stocks in assay buffer (50 mM Tris pH 7.5, 150 mM NaCl, 1 mM DTT, 0.05% Tween-20, 5 mM MgCl2, and 100 μM ATP) and incubated with 4 nM BRAF and 10 nM MEK for 1 hr at 25° C. 1 ng Anti His-Tb Cryptate/20 ng Anti GST-XL665 premix was then added and incubated for 1 hr at 25° C. TR-FRET was measured using Cytation5 microplate reader (Agilent) using Ex/Em=340/620 nm and Ex/Em=340/665 nm to determine the FRET ratio. Fold stabilization was calculated as FRET signal of treated well/DMSO control. Fold stabilization as a function of compound concentration from 2 replicate wells was fit with a 4-parameter logistic curve equation using GraphPad Prism or CDD Vault to derive EC50 values.
(§2) In this table, for the BRAF ADP Glo kinase assay, “A” indicates IC50 of less than 5 nM; “B” indicates IC50 of between 5 nM to 50 nM; and “C” indicates IC50 of between 50 nM to 500 nM. “D” indicates IC50 of greater than 500 nM. For the BRAF-MEK TR-FRET assay, “A” indicates EC50 of less than 50 nM; “B” indicates EC50 of between 50 nM to 200 nM; and “C” indicates EC50 of between 200 nM to 1 μM. “D′” indicates EC50 of greater than 1 μM. For the AlphaLisa P-ERK assay, “A” indicates IC50 of less than 1 nM; “B” indicates IC50 of between 1 nM to 10 nM; and “C” indicates IC50 of between 10 nM to 100 nM. “D” indicates IC50 of greater than 100 nM. For the cell viability assay, “A” indicates IC50 of less than 1 nM; “B” indicates IC50 of between 1 nM to 10 nM; and “C” indicates IC50 of between 10 nM to 100 nM. “D” indicates IC50 of greater than 100 nM.
A general note: In TR-FRET formats the signal depends on donor and acceptor labels being close together.

In a further assay the target is T1, MEK1 (Homo sapiens, UniProt Q02750).
T1 construct: purchased SignalChem M02-14H
T1 sequence (Q02750 whole entry): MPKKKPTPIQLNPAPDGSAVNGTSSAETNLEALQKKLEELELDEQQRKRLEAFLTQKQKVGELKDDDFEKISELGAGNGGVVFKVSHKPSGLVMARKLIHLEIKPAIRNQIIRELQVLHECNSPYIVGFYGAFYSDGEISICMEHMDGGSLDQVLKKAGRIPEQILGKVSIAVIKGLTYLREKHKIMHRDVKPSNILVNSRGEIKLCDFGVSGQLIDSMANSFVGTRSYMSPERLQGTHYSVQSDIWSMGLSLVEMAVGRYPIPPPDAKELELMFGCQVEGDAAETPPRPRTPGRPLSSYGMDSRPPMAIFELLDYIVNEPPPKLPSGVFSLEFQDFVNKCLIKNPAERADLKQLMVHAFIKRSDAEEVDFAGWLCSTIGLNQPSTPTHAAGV
T1 sequence (P15056 445-723 partner limits assumed): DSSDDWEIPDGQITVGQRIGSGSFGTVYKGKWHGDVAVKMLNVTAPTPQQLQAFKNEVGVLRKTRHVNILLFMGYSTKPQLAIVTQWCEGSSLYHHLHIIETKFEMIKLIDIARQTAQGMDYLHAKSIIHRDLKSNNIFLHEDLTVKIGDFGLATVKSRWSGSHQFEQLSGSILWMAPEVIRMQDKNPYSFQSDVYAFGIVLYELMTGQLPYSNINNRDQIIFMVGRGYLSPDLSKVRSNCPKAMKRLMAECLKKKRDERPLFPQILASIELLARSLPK
The assay is described as follows: MEK1 kinase cascade assay (ADP-Glo), inhibition of MEK1 kinase activity. To be noted: 25 nM BRAF, 6.25 nM MEK1, 0.5 μM ERK, 1 mM ATP; 20 min preincubation, 1 hr at 25° C.; read-out: BRAF ADP Glo kinase assay V3 (IC50). It is filed as biochemical.
Source text: as §1
Efficacy of exemplary compounds in inhibition of MEK1 kinase activity: The effect of compound MEK1 inhibition was evaluated using an ADP detection system for kinases, such as the ADP-Glo assay (Promega). The MEK1 kinase cascade assay consisted of 9 μL reaction volumes in 384-well white, opaque Optiplates (PerkinElmer). Compounds were prepared from DMSO stocks in assay buffer (10 mM HEPES pH 7.5, 5 mM MgCl2, 2 mM CHAPS, and 1 mM DTT) and preincubated with 25 nM BRAF for 20 mins at 25° C. prior to addition of 6.25 nM MEK1/0.5 μM ERK/1 mM ATP premix to initiate the kinase reaction. Both BRAF and ERK1 were produced in-house, and MEK1 was purchased from SignalChem (M02-14H). DMSO was kept constant at a final concentration of 1%. After a 1 hr incubation at 25° C., conversion of ATP to ADP was detected using ADP-Glo™ reagents according to the manufacturer's protocol. Luminescence was measured using a CLARIOstar microplate reader (BMG). Percent (%) Inhibition was calculated by normalizing to DMSO control (max) and 1 μM Trametinib (min). % inhibition as a function of compound concentration from 2 replicate wells was fit with a 4-parameter logistic curve equation using GraphPad Prism or CDD Vault to derive IC50 values.
as §2
On the technique in general: ADP-Glo first removes unused ATP, then detects ADP through luciferase.

Where two headings read alike, the source gives them in different places. A value given as a limit tells only on which side of the number the result lay.

What is called IC50 is the midpoint of a concentration-inhibition curve. In the case of `CNS(=O)(=O)Nc1cccc(CN2C(=O)Oc3cc(Oc4cccnn4)cnc3C23CC3)c1F` [Compound 201, 2′-{[2-fluoro-3-(methylaminosulfonylamino)phenyl]methyl}-6′-(3-pyridazinyloxy)-2′H,3′H-4′-oxa-2′,8′-diazaspiro[cyclopropane-1,1′-naphthalen]-3′-one], the EC50 in the assay on BRAF-MEK1 was below 50 nM. Further, the IC50 at MEK1 is below 5 nM.
For `CNS(=O)(=O)Nc1cccc(CN2C(=O)Oc3cc(Oc4ncco4)c(F)cc3C2C)c1F` (single isomer, unassigned) [Compound 85, (R)-6-fluoro-3-({2-fluoro-3-(methylsulfamoyl)amino]phenyl}methyl)-4-methyl-7-(1,3-oxazol-2-yloxy)-3,4-dihydro-2H-1,3-benzoxazin-2-one or (S)-6-fluoro-3-({2-fluoro-3-(methylsulfamoyl)amino]phenyl}methyl)-4-methyl-7-(1,3-oxazol-2-yloxy)-3,4-dihydro-2H-1,3-benzoxazin-2-one], in that order: 200 to 1000 nM and 5 to 50 nM.
With `CNS(=O)(=O)Nc1cccc(CN2C(=O)Oc3cc(OC(=O)N(C)C)ccc3[C@H]2C)c1F` [Compound 153, 3-(2-fluoro-3-((N-methylsulfamoyl)amino)benzyl)-4-methyl-2-oxo-3,4-dihydro-2H-benzo[e][1,3]oxazin-7-yl dimethylcarbamate], in the assay with BRAF-MEK1, the EC50 was 200 to 1000 nM. For the same compound, the IC50 at MEK1 lay in the range of 5 to 50 nM.
In the case of `CNS(=O)(=O)Nc1cccc(CN2C(=O)Oc3cc(Oc4cccnn4)cnc3[C@H]2C)c1F` (stereo in doubt) [Compound 175], the EC50 in the assay on BRAF-MEK1 fell in the range of 50 to 200 nM. Further, at MEK1, the IC50 fell in the range of 5 to 50 nM.
With `CN(C)S(=O)(=O)Nc1cccc(CN2Cc3ccc(Oc4cccnn4)cc3OC2=O)c1F` [Compound 37, 3-{[3-(dimethylaminosulfonylamino)-2-fluorophenyl]methyl}-7-(3-pyridazinyloxy)-3,4-dihydro-2H-1,3-benzoxazin-2-one], the EC50 in the assay on BRAF-MEK1 lay within 50 to 200 nM. Also, the IC50 on MEK1 fell in the range of 5 to 50 nM.
For `O=C1Oc2c(ccc(Oc3cccnn3)c2F)C2(CCC2)N1Cc1ccnc(NS(=O)(=O)C2CC2)c1F` [Compound 184, (cyclopropylsulfonyl)[3-fluoro-4-({8-fluoro-2-oxo-7-(3-pyridazinyloxy)-2H,3H-spiro[1,3-benzoxazine-4,1′-cyclobutan]-3-yl}methyl)-2-pyridyl]amine], in that order: 50 to 200 nM and 50 to 500 nM.
Regarding `CNS(=O)(=O)Nc1nccc(CN2C(=O)Oc3cc(Oc4ncco4)c(F)cc3C2C)c1F` (single isomer, unassigned) [Compound 186, 6-fluoro-3-{[3-fluoro-2-(methylaminosulfonylamino)-4-pyridyl]methyl}-4-methyl-7-(1,3-oxazol-2-yloxy)-3,4-dihydro-2H-1,3-benzoxazin-2-one], the EC50 in the assay on BRAF-MEK1 (60 min) is 200 to 1000 nM. On MEK1, the IC50 lay in the range of 50 to 500 nM.
On to `CNS(=O)(=O)Nc1nccc(CN2C(=O)Oc3cc(Oc4cccnn4)ccc3[C@H]2C)c1F` (single isomer, unassigned) [Compound 23], for which the EC50 in the assay with BRAF-MEK1 is below 50 nM. Moreover, the IC50 at MEK1 fell in the range of 5 to 50 nM.
Consider `CNS(=O)(=O)Nc1nccc(CN2C(=O)Oc3c(ccc(Oc4cccnn4)c3F)C23CCC3)c1F` [Compound 174, 8-fluoro-3-{[3-fluoro-2-(methylaminosulfonylamino)-4-pyridyl]methyl}-7-(3-pyridazinyloxy)-2H,3H-spiro[1,3-benzoxazine-4,1′-cyclobutan]-2-one], for which the EC50 with BRAF-MEK1 was below 50 nM. At MEK1, the IC50 is 5 to 50 nM.
Take `CNS(=O)(=O)Nc1cccc(CN2C(=O)Oc3cc(Oc4cccnn4)ccc3C23CC3)c1F` [Compound 196, 3-{[2-fluoro-3-(methylaminosulfonylamino)phenyl]methyl}-7-(3-pyridazinyloxy)-2H,3H-spiro[1,3-benzoxazine-4,1′-cyclopropan]-2-one]: the EC50 with BRAF-MEK1 was below 50 nM. For the same compound, on MEK1, the IC50 is below 5 nM.
For `CN(C)C(=O)Oc1ccc2c(c1)OC(=O)N(Cc1cccc(NS(=O)(=O)N3CC4(COC4)C3)c1F)C2` [Compound 109, 3-(2-fluoro-3-(2-oxa-6-azaspiro[3.3]heptane-6-sulfonamido)benzyl)-2-oxo-3,4-dihydro-2H-benzo[e][1,3]oxazin-7-yl dimethylcarbamate], in that order: 200 to 1000 nM and 5 to 50 nM.
For `CN(C)C(=O)Oc1ccc2c(c1)OC(=O)N(Cc1cccc(NS(=O)(=O)N(C)C)c1F)C21CCC1` [Compound 33, 3-({3-[(dimethylsulfamoyl)amino]-2-fluorophenyl}methyl)-2-oxo-2,3-dihydrospiro[1,3-benzoxazine-4,1′-cyclobutan]-7-yl N,N-dimethyl carbamate], in that order: 50 to 200 nM and 5 to 50 nM.
Turning to `CNS(=O)(=O)Nc1nccc(CN2C(=O)Oc3cc(Oc4ncco4)c(F)cc3C2C)c1F` (single isomer, unassigned) [Compound 185, 6-fluoro-3-{[3-fluoro-2-(methylaminosulfonylamino)-4-pyridyl]methyl}-4-methyl-7-(1,3-oxazol-2-yloxy)-3,4-dihydro-2H-1,3-benzoxazin-2-one], the EC50 with BRAF-MEK1 (60 min) was in the range of 50 to 200 nM. Moreover, the IC50 on MEK1 was in the range of 5 to 50 nM.
On to `CNS(=O)(=O)Nc1cccc(CN2C(=O)Oc3cc(OC(=O)N(C)C)c(Cl)cc3[C@H]2C)c1F` [Compound 107, (R)-6-chloro-7-(dimethylaminocarbonyloxy)-3-{[2-fluoro-3-(methylaminosulfonylamino)phenyl]methyl}-4-methyl-3,4-dihydro-2H-1,3-benzoxazin-2-one], for which the EC50 in the assay on BRAF-MEK1 was 200 to 1000 nM. The half-inhibitory concentration (IC50) at MEK1 is 5 to 50 nM.
Consider `[2H]C1([2H])c2ccc(Oc3nccnn3)cc2OC(=O)N1Cc1cccc(NS(=O)(=O)NC)c1F` [Compound 31, 3-({2-fluoro-3-[(methylsulfamoyl)amino]phenyl}methyl)-7-(1,2,4-triazin-3-yloxy)-3,4-dihydro(4,4-^2 H2)-2H-1,3-benzoxazin-2-one], for which the EC50 with BRAF-MEK1 was below 50 nM. Moreover, the IC50 at MEK1 lay within 5 to 50 nM.
For the compound `CN(C)S(=O)(=O)Nc1nccc(CN2C(=O)Oc3cc(Oc4ncco4)ccc3C23CCC3)c1F` [Compound 179, 3-{[2-(dimethylaminosulfonylamino)-3-fluoro-4-pyridyl]methyl}-7-(1,3-oxazol-2-yloxy)-2H,3H-spiro[1,3-benzoxazine-4,1′-cyclobutan]-2-one], in the assay with BRAF-MEK1, the EC50 was in the range of 200 to 1000 nM. Moreover, the concentration for half-maximal inhibition (IC50) on MEK1 was in the range of 5 to 50 nM.
For `CNS(=O)(=O)Nc1cc(F)cc(CN2C(=O)Oc3cc(Oc4cccnn4)ccc3C23CCC3)c1F` [Compound 194, 3-{[2,5-difluoro-3-(methylaminosulfonylamino)phenyl]methyl}-7-(3-pyridazinyloxy)-2H,3H-spiro[1,3-benzoxazine-4,1′-cyclobutan]-2-one], in that order: 50 to 200 nM and 5 to 50 nM.
